Key:
[1] = system: patients with pulmonary hypertension associated with sarcoidosis (PH-SARC); assay: Safety and tolerability in the acute iNO dose escalation study; format: in vivo, human
Description: (§1) Patients were administered acute escalating doses of pulsatile iNO via an INOpulse device starting at 30 mcg/kg ideal body weight/hr (iNO30) and increasing up to 125 mcg/kg ideal body weight/hr (iNO125) to assess the impact of each dose level on hemodynamic parameters. Patients were treated with iNO for 10 minutes per dose with a 10-minute washout between doses.
(§2) During the Treatment Visit of Part 1 of the study, subjects were admitted to the cardiac catheterization suite/ICU/CCU and a Swan Ganz Catheter was inserted, and subjects were monitored during acute exposure to iNO at 30, 45, 75, 125 mcg/kg IBW/hr. Hemodynamic changes were monitored during this part of the study. The primary endpoint for Part 1 of the study was to assess the change in mean pulmonary artery pressure (mPAP), pulmonary capillary wedge pressure (PCWP), cardiac output (CO) and pulmonary vascular resistance (PVR) on iNO 30, 45, 75, 125 mcg/kg IBW/hr compared to baseline. The Safety Endpoint includes incidence and severity of treatment emergent adverse events (AEs), including those related to device deficiency, symptoms that may be due to rebound associated with acute withdrawal of iNO: systemic arterial oxygen desaturation, hypoxemia, bradycardia, tachycardia, systemic hypotension, shortness of breath, near-syncope, and syncope, and change in oxygen saturation and vital signs.

[2] = system: patients with pulmonary hypertension associated with sarcoidosis (PH-SARC); assay: Acute iNO dose escalation study, right heart catheterization hemodynamics (Phase 2, Part 1); format: in vivo, human; details: for PVR change from baseline: pulsed, 10 min, baseline median 329.4; for PVR change from baseline / CO percent change from baseline / PCWP percent change from baseline / PVR percent change from baseline / mPAP percent change from baseline / CO change from baseline / PCWP change from baseline / mPAP change from baseline: median (IQR); for CO change from baseline: baseline median 5.9; for PCWP change from baseline: baseline median 13.5; for mPAP change from baseline: baseline median 37.2
Description: Patients with sarcoidosis may develop pulmonary hypertension (PH) which is associated with an impaired quality of life and limitations on activities of daily living. The Phase 2 trial, was designed to determine the safety and clinical efficacy of pulsed iNO, a potent and well-established vasodilator, on sarcoidosis-associated with PH patients, as well as to evaluate the safe and effective dose of iNO in subjects on long term oxygen therapy (LTOT) with possible or definite pulmonary hypertension associated with sarcoidosis.
Sarcoidosis patients with PH on prior right heart catherization (RHC) or on echocardiography were enrolled in a two-part open label study. Patients underwent RHC, to establish baseline hemodynamics including mean pulmonary arterial pressure (mPAP), cardiac output (CO), pulmonary wedge pressure (PCWP) with derivation of pulmonary vascular resistance (PVR).
as §1
Each dose level was followed by a washout period. All hemodynamic wave forms were reviewed by a blinded hemodynamic core lab for determination of end-exhalation PAP and PCWP. After the acute vasodilator study, subjects were eligible to participate in a long-term open label extension study at the dose of iNO found to be most beneficial by the RHC measurements, as determined by the investigator.
as §2
The changes in hemodynamics were determined for absolute change (as shown in FIGS. 2A-2D) and percent change (as shown in FIGS. 2E-2H) from baseline in PVR, mPAP, CO and PCWP. The analysis depicted illustrates the change from baseline (box & whisker plot provides median, IQR, and min/max). Statistical analysis based on Wilcoxon […] was assessed between baseline and each dose as well as each dose and each prior dose and no correction was conducted for multiplicity.

SMILES: [N]=O [iNO, nitric oxide]
- tolerability ([1]; across all the doses iNO30 to iNO125): well-tolerated
- adverse events or serious adverse events related to iNO ([1]; acute doses iNO30 to iNO125, 8 patients): No adverse events or serious adverse events related to iNO were reported
- median mPAP reduction from baseline across the doses ([2]; across the doses of iNO30 to iNO125, baseline median mPAP 37.2 mmHg): 6-10%
- patients demonstrating decreases in mPAP and PVR ([2]; across the doses of iNO from iNO30 to iNO125, blinded core lab, 8 patients): all 8 patients demonstrated decreases in mPAP and PVR
- PCWP across all doses ([2]; all doses iNO30 to iNO125): remained stable
- cardiac output (CO) across all doses ([2]; all doses iNO30 to iNO125): remained stable
- PVR change from baseline ([2]; iNO30 (30 mcg/kg IBW/hr)): −19.2 (39.0) dyne*sec*cm-5
- CO percent change from baseline ([2]; iNO30 (30 mcg/kg IBW/hr)): −2.5% (11.2)
- PCWP percent change from baseline ([2]; iNO30 (30 mcg/kg IBW/hr)): −4.1% (29.1%)
- PVR percent change from baseline ([2]; iNO30 (30 mcg/kg IBW/hr)): −7.0% (10.6%)
- mPAP percent change from baseline ([2]; iNO30 (30 mcg/kg IBW/hr)): −7.1% (10.0%)
- CO change from baseline ([2]; iNO30 (30 mcg/kg IBW/hr)): −0.1 (0.6) L/min
- PCWP change from baseline ([2]; iNO30 (30 mcg/kg IBW/hr)): −1.0 (4.3) mmHg
- mPAP change from baseline ([2]; iNO30 (30 mcg/kg IBW/hr)): −2.7 (2.8) mmHg
- PVR change from baseline ([2]; iNO45 (45 mcg/kg IBW/hr)): −48.4 (84.6) dyne*sec*cm-5
- CO percent change from baseline ([2]; iNO45 (45 mcg/kg IBW/hr)): 1.0% (6.5%)
- PCWP percent change from baseline ([2]; iNO45 (45 mcg/kg IBW/hr)): 0.0% (20.5%)
- mPAP percent change from baseline ([2]; iNO45 (45 mcg/kg IBW/hr)): −10.6% (15.8%)
- CO change from baseline ([2]; iNO45 (45 mcg/kg IBW/hr)): 0.0 (0.3) L/min
- PCWP change from baseline ([2]; iNO45 (45 mcg/kg IBW/hr)): 0.0 (2.5) mmHg
- mPAP change from baseline ([2]; iNO45 (45 mcg/kg IBW/hr)): −4.0 (5.2) mmHg
- median decrease of PVR from baseline ([2]; iNO45 dose, range −54% to +22%, baseline median PVR 329 dyne*sec*cm-5): 20%
- PVR change from baseline ([2]; iNO75 (75 mcg/kg IBW/hr)): −68.0 (92.7) dyne*sec*cm-5
- CO percent change from baseline ([2]; iNO75 (75 mcg/kg IBW/hr)): 0.1% (6.1%)
- PCWP percent change from baseline ([2]; iNO75 (75 mcg/kg IBW/hr)): 10.6% (29.5%)
- PVR percent change from baseline ([2]; iNO75 (75 mcg/kg IBW/hr)): −15.3% (37.7%)
- mPAP percent change from baseline ([2]; iNO75 (75 mcg/kg IBW/hr)): −6.3% (13.2%)
- CO change from baseline ([2]; iNO75 (75 mcg/kg IBW/hr)): 0.0 (0.4) L/min
- PCWP change from baseline ([2]; iNO75 (75 mcg/kg IBW/hr)): 1.5 (4.3) mmHg
- mPAP change from baseline ([2]; iNO75 (75 mcg/kg IBW/hr)): −2.3 (3.9) mmHg
- PVR change from baseline ([2]; iNO125 (125 mcg/kg IBW/hr)): −85.8 (67.1) dyne*sec*cm-5
- CO percent change from baseline ([2]; iNO125 (125 mcg/kg IBW/hr)): 4.2% (14.6%)
- PCWP percent change from baseline ([2]; iNO125 (125 mcg/kg IBW/hr)): 0.0% (30.7%)
- PVR percent change from baseline ([2]; iNO125 (125 mcg/kg IBW/hr)): −28.7% (20.8%)
- mPAP percent change from baseline ([2]; iNO125 (125 mcg/kg IBW/hr)): −6.4% (11.0%)
- CO change from baseline ([2]; iNO125 (125 mcg/kg IBW/hr)): 0.2 (0.8) L/min
- PCWP change from baseline ([2]; iNO125 (125 mcg/kg IBW/hr)): 0.0 (4.0) mmHg
- mPAP change from baseline ([2]; iNO125 (125 mcg/kg IBW/hr)): −3.0 (3.5) mmHg
- median decrease of PVR from baseline ([2]; iNO125 dose, range −43% to −5%, p=0.02 vs. baseline and prior dose): 29%

Source: patent publication US20250302869A1, “USE OF INHALED NITRIC OXIDE (INO) FOR TREATING PATIENTS WITH PULMONARY HY[…] SARCOIDOSIS (PH-SARC)” (Mallinckrodt Pharmaceuticals Ireland Limited, priority 2022, published 2025)
